In ChEMBL document CHEMBL1123591, “Synthetic analogues of tetrahydrobiopterin with cofactor activity for aromatic amino acid hydroxylases” (1987):

How the values were obtained:
[1] = system: dihydropteridine reductase; assay: Tested in isolated enzyme assay for its cofactor actidihydropteridine reductaseity against dihydropteridine reductase expressed as relatidihydropteridine reductasee dihydropteridine reductaseelocity
[2] = system: dihydropteridine reductase; assay: Tested in isolated enzyme assay for its cofactor activity against dihydropteridine reductase expressed as relative velocity

## CCCCOCC1CNc2nc(N)nc(O)c2N1.Cl.Cl (centres undefined)
[1]
  Relative velocity: 283%

## CC1(C)CNc2nc(N)nc(O)c2N1
[2]
  Relative velocity: 239%

## CC(C)(C)OCC1CNc2nc(N)nc(O)c2N1.Cl.Cl (centres undefined)
[2]
  Relative velocity: 222%

## COCC1CNc2nc(N)nc(O)c2N1.Cl.Cl (centres undefined)
[2]
  Relative velocity: 421%

## CC(C)OCC1CNc2nc(N)nc(O)c2N1.Cl.Cl (centres undefined)
[2]
  Relative velocity: 277%

## CC1CNc2nc(N)[nH]c(=O)c2N1.Cl.Cl (centres undefined)
[2]
  Relative velocity: 216%

## CC(O)C(O)C1CNc2nc(N)nc(O)c2N1.Cl.Cl (centres undefined)
[2]
  Relative velocity: 100%

## CCOCC1CNc2nc(N)nc(O)c2N1.Cl.Cl (centres undefined)
[2]
  Relative velocity: 419%

## CCCOCC1CNc2nc(N)nc(O)c2N1.Cl.Cl (centres undefined)
[2]
  Relative velocity: 212%
